US11459339B2, “Biaryl derivative, preparation method thereof and pharmaceutical application thereof” (Abbisko Therapeutics Co., Ltd., priority 2018, dated 2022)

Columns and labels:
[1] = target: interaction between PD-1 and PD-L1 (Homo sapiens (Human), UniProt Q9NZQ7); experiment: PD1-PDL1 HTRF binding activity test (Cisbio PD-1/PD-L1 binding assay kit); conditions: read-out: PD1-PDL1 HTRF Binding Activity IC50
[2] = target: interaction between PD-1 and PD-L1 expressed on cell surfaces (Homo sapiens (Human), UniProt Q9NZQ7); experiment: Jurkat reporter gene cellular assay (Jurkat/NF-κB-luc/PD1 cells cocultured with Raji-PD-L1 cells, OKT-3 stimulation); format: cell-based; conditions: NF-κB-luc reporter activation fold, 6 hrs; read-out: Cell Activity EC50
Method in brief: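 Jurkat cells stably expressing human PD-1 and NF-κB-luciferase were cocultured with Raji cells stably expressing human PD-L1 under OKT-3 stimulation, with compound present. Luminescence was read after 6 h.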

Sequence of interaction between PD-1 and PD-L1 expressed on cell surfaces (Q9NZQ7 19-290): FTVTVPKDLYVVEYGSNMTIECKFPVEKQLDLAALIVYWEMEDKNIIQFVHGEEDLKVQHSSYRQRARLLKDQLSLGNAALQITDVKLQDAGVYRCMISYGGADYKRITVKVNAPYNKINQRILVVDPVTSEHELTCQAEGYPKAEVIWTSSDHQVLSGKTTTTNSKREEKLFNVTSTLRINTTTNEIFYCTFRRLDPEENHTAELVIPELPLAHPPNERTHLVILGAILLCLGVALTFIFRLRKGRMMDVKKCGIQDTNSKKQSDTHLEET
Sequence of interaction between PD-1 and PD-L1 (Q9NZQ7 19-238): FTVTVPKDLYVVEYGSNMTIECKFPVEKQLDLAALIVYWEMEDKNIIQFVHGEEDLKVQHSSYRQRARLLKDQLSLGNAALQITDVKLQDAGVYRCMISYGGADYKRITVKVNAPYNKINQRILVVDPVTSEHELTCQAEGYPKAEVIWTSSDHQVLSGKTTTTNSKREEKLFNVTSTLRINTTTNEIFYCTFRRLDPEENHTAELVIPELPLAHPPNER

| SMILES | IC50 [1] [nM] | EC50 [2] [nM] |
| --- | --- | --- |
| Cc1c(NC(=O)c2cc(C3CC3)c(CNC(C(=O)O)C(=O)O)cn2)cccc1-c1cccc(NC(=O)c2cc(C3CC3)c(CNC(C(=O)O)C(=O)O)cn2)c1C [Example 120, 2,2′-((((((2,2′-dimethyl-[1,1′-biphenyl]-3,3′-diyl)bis(azanediyl))bis(carbonyl))bis (4-cyclopropylpyridine-6,3-diyl))bis (methylene))bis(azanediyl))dimalonic acid] | 1.43 | 1760 |
| CCOC(=O)CNCc1cnc(C(=O)Nc2cccc(-c3cccc(NC(=O)c4cc(C5CC5)c(CNCC(=O)OCC)cn4)c3C)c2C)cc1C1CC1 [Example 121, diethyl 2,2′-((((((2,2′-dimethyl-[1,1′-biphenyl]-3,3′-diyl)bis(azanediyl))bis(carbonyl))bis(4-cyclopropylpyridine-6,3-diyl))bis(methylene))bis(azanediyl)) diacetate] | 16.6 | 1340 |
| Cc1c(NC(=O)c2cc(C3CC3)c(CNCC(=O)O)cn2)cccc1-c1cccc(NC(=O)c2cc(C3CC3)c(CNCC(=O)O)cn2)c1C [Example 122, 2,2′-((((((2,2′-dimethyl-[1,1′-biphenyl]-3,3′-diyl)bis(azanediyl))bis(carbonyl))bis(4-cyclopropylpyridine-6,3-diyl))bis(methylene))bis(azanediyl)) diacetic acid] | 1.14 | 19 |
| CCOC(=O)[C@H](C)NCc1cnc(C(=O)Nc2cccc(-c3cccc(NC(=O)c4cc(C5CC5)c(CN[C@@H](C)C(=O)OCC)cn4)c3C)c2C)cc1C1CC1 [Example 123] | 22 | 2410 |
| Cc1c(NC(=O)c2cc(C3CC3)c(CN[C@@H](C)C(=O)O)cn2)cccc1-c1cccc(NC(=O)c2cc(C3CC3)c(CN[C@@H](C)C(=O)O)cn2)c1C [Example 124, (2S,2S)-2,2′-((((((2,2′-dimethyl-[1,-1′-biphenyl]-3,3′-diyl)bis(azanediyl))bis (carbonyl))bis(4-cyclopropylpyridine-6,3-diyl))bis(methylene))bis(azanediyl)) dipropionic acid] | 1.09 | 14.7 |
| CCOC(=O)[C@@H](NCc1cnc(C(=O)Nc2cccc(-c3cccc(NC(=O)c4cc(C5CC5)c(CN[C@H](C(=O)OCC)C(C)C)cn4)c3C)c2C)cc1C1CC1)C(C)C [Example 125, diethyl 2,2′-((((((2,2′-dimethyl-[1,1′-biphenyl]-3,3′-diyl)bis(azanediyl))bis(carbonyl))bis(4-cyclopropylpyridine-6,3-diyl))bis(methylene))bis(azanediyl)) (2S,2′S)-bis(3-methylbutanoate)] | > 2000 | > 10000 |
| Cc1c(NC(=O)c2cc(C3CC3)c(CN[C@H](C(=O)O)C(C)C)cn2)cccc1-c1cccc(NC(=O)c2cc(C3CC3)c(CN[C@H](C(=O)O)C(C)C)cn2)c1C [Example 126, (2S,2S)-2,2-((((((2,2′-dimethyl-[1,1′-biphenyl]-3,3′-diyl)bis(azanediyl))bis (carbonyl))bis(4-cyclopropylpyridine-6,3-diyl))bis(methylene))bis(azanediyl)) bis(3-methylbutanoic acid)] | 1.11 | 64 |
| CCOC(=O)C1(NCc2cnc(C(=O)Nc3cccc(-c4cccc(NC(=O)c5cc(C6CC6)c(CNC6(C(=O)OCC)CC6)cn5)c4C)c3C)cc2C2CC2)CC1 [Example 127, diethyl 1,1′-((((((2,2′-dimethyl-[1,1′-biphenyl]-3,3′-diyl)bis(azanediyl))bis(carbonyl))bis(4-cyclopropylpyridine-6,3-diyl))bis(methylene))bis(azanediyl)) bis(cyclopropane-l-carboxylate)] | 113 | > 10000 |
| Cc1c(NC(=O)c2cc(C3CC3)c(CNC3(C(=O)O)CC3)cn2)cccc1-c1cccc(NC(=O)c2cc(C3CC3)c(CNC3(C(=O)O)CC3)cn2)c1C [Example 128, 1,1′-((((((2,2′-dimethyl-[1,1′-biphenyl]-3,3-diyl)bis(azanediyl))bis(carbonyl))bis (4-cyclopropylpyridine-6,3-diyl))bis (methylene))bis(azanediyl))bis (cyclopropane-1-carboxylic acid)] | 1.32 | 77.8 |
| CCOC(=O)CN(C)Cc1cnc(C(=O)Nc2cccc(-c3cccc(NC(=O)c4cc(C5CC5)c(CN(C)CC(=O)OCC)cn4)c3C)c2C)cc1C1CC1 [Example 129] | 102 | > 10000 |
| Cc1c(NC(=O)c2cc(C3CC3)c(CN(C)CC(=O)O)cn2)cccc1-c1cccc(NC(=O)c2cc(C3CC3)c(CN(C)CC(=O)O)cn2)c1C [Example 130, 2,2′-((((((2,2′-dimethyl-[1,1′-biphenyl]-3,3′-diyl)bis(azanediyl))bis (carbonyl))bis(4-cyclopropylpyridine-6,3-diyl))bis(methylene))bis (methylazanediyl))diacetic acid] | 0.99 | 600 |
| COC(=O)[C@@H]1CCN(Cc2cnc(C(=O)Nc3cccc(-c4cccc(NC(=O)c5cc(C6CC6)c(CN6CC[C@@H](C(=O)OC)C6)cn5)c4C)c3C)cc2C2CC2)C1 [Example 131, dimethyl 1,1′-(((((2,2′-dimethyl-[1,1′-biphenyl]-3,3′-diyl)bis(azanediyl))bis (carbonyl))bis(4-cyclopropylpyridine-6,3-diyl))bis(methylene))(3R,3′R)-bis (pyrrolidine-3-carboxylate)] | 21.8 | 2580 |
| Cc1c(NC(=O)c2cc(C3CC3)c(CN3CC[C@@H](C(=O)O)C3)cn2)cccc1-c1cccc(NC(=O)c2cc(C3CC3)c(CN3CC[C@@H](C(=O)O)C3)cn2)c1C [Example 132, (3R,3′R)-1,1′-(((((2,2′-dimethyl-[1,1′-biphenyl]-3,3′-diyl)bis(azanediyl))bis (carbonyl))bis(4-cyclopropylpyridine-6,3-diyl))bis(methylene))bis(pyrrolidine-3-carboxylic acid)] | 0.2 | 23.1 |
| COC(=O)[C@H]1CCN(Cc2cnc(C(=O)Nc3cccc(-c4cccc(NC(=O)c5cc(C6CC6)c(CN6CC[C@H](C(=O)OC)C6)cn5)c4C)c3C)cc2C2CC2)C1 [Example 133, dimethyl 1,1′-(((((2,2′-dimethyl-[1,1′-biphenyl]-3,3′-diyl)bis(azanediyl))bis (carbonyl))bis(4-cyclopropylpyridine-6,3-diyl))bis(methylene))(3S,3′S)-bis (pyrrolidine-3-carboxylate)] | 11.8 | 1900 |
| Cc1c(NC(=O)c2cc(C3CC3)c(CN3CC[C@H](C(=O)O)C3)cn2)cccc1-c1cccc(NC(=O)c2cc(C3CC3)c(CN3CC[C@H](C(=O)O)C3)cn2)c1C [Example 134, (3S,3′S)-1,1′-(((((2,2′-dimethyl-[1,1′-biphenyl]-3,3′-diyl)bis(azanediyl))bis (carbonyl))bis(4-cyclopropylpyridine-6,3-diyl))bis(methylene))bis(pyrrolidine-3-carboxylic acid)] | 0.82 | 21 |
| Cc1c(NC(=O)c2cc(C3CC3)c(CNC[C@@H](O)CC(=O)O)cn2)cccc1-c1cccc(NC(=O)c2cc(C3CC3)c(CNC[C@@H](O)CC(=O)O)cn2)c1C [Example 136, (3S,3′S)-4,4′-((((((2,2′-dimethyl-[1,1′-biphenyl]-3,3′-diyl)bis(azanediyl))bis (carbonyl))bis(4-cyclopropylpyridine-6,3-diyl))bis(methylene))bis(azanediyl)) bis(3-hydroxybutanoic acid)] | 0.32 | 27.4 |
| Cc1c(NC(=O)c2cc(C3CC3)c(CNC[C@@H]3CCC(=O)N3)cn2)cccc1-c1cccc(NC(=O)c2cc(C3CC3)c(CNC[C@@H]3CCC(=O)N3)cn2)c1C [Example 137, N,N′-(2,2′-dimethyl-[1,1′-biplienyl]-3,3′-diyl)bis(4-cyclopropyl-5-(((((S)-5-oxopyrrolidin-2-yl)methyl)amino)methyl)picolinamide)] | 2.07 | 108 |
| Cc1c(NC(=O)c2cc(C3CC3)c(CNCCF)cn2)cccc1-c1cccc(NC(=O)c2cc(C3CC3)c(CNCCF)cn2)c1C [Example 138, N,N′-(2,2′-dimethyl-[1,1′-biphenyl]-3,3′-diyl)bis(4-cyclopropyl-5-(((2-fluoroethyl)amino)methyl)picolinamide)] | 5.03 | 581 |
| Cc1c(NC(=O)c2cc(C3CC3)c(CNCC(F)F)cn2)cccc1-c1cccc(NC(=O)c2cc(C3CC3)c(CNCC(F)F)cn2)c1C [Example 139, N,N′-(2,2′-dimethyl-[1,1′-biphenyl]-3,3′-diyl)bis(4-cyclopropyl-5-(((2,2-difluoroethyl)amino)methyl)picolinamide)] | 120 | > 10000 |
| Cc1c(NC(=O)c2cc(C3CC3)c(CNCC(F)(F)F)cn2)cccc1-c1cccc(NC(=O)c2cc(C3CC3)c(CNCC(F)(F)F)cn2)c1C [Example 140, N,N′-(2,2′-dimethyl-[1,1′-biphenyl]-3,3′-diyl)bis(4-cyclopropyl-5-(((2,2,2-trifluoroethyl)amino)methyl)picolinamide)] | 15.1 | 2710 |
| Cc1cc(C(=O)Nc2cccc(-c3ccccc3)c2C)ncc1CNCCO [Positive compound, reference compound] | 2.4 | > 10000 |
